# Test results taken from patent US20110097410A1, “FORMULATIONS OF PX COMPOUNDS” (priority 2007, published 2011).
# Key:
# [1] = solubility in aqueous solutions; assay type: physicochemical
# Text: Despite the apparent efficacy of PX compounds in treating various disease conditions, their use is limited due to a problem of extremely low solubility. […] This very poor solubility generally leads to insufficient bioavailability alter administration, likely because the dissolution velocity is too slow.
# [2] = particle size after high pressure homogenization (photon correlation spectroscopy); assay type: physicochemical
# Procedure: PX-18 powder was dispersed in a 1% Tween 80 carrier. The composition of the formulation was 1% PX-18, 1% Tween 80 and 98% water. The obtained macrosuspension was passed through a micron LAB 40 homogenizer (APV Homogenizer Systems, Unna/Germany) at 1500 bar, applying one homogenization cycle. The particle size was determined by photon correlation spectroscopy (PCS, Malvern Zetasizer Nano ZS, Malvern Instruments, United Kingdom), The mean particle size (z-average) was 745 nm.
# A second macrosuspension of PX-18 was prepared as described above, and subsequently homogenized. The homogenization parameters were 1500 bar and 20 homogenization cycles.
# A suspension of 1% PX-13 was prepared in an aqueous preparation of 2% Planta Care 2000. After homogenization applying 20 cycles at 1500 bar, a PCS mean diameter of 33 nm was obtained.
# [3] = test system: ischemia-induced impaired vasodilation; assay: ischemia-induced impaired vasodilation; assay type: in vivo, newborn piglets; settings: for effect on impaired hypercapnic vasodilation after global ischemia: FIG. 11
# Procedure: (§1) The ability of PX-18 nanoparticles to influence 1) basal and induced arterial dilation; and 2) ischemia-induced impaired vasodilation (due to bradykinin, N-methyl-D-aspartic acid (NMDA) and ischemia-reperfusion) was studied in newborn piglets (1-2-day old, n=44). The piglets were anesthetized, ventilated, and equipped with arterial and venous catheters and a closed cranial window. Xanoparticulate PX-18 was administered iv at a concentration of 6 mg/kg.
# The protocol for testing the effect of ischemia-induced impaired vasodilation is preseted in FIG. 8. […] In addition, intravenous but not topical treatment with PX-18 restored impaired hypercapnic vasodilation after global ischemia (FIG. 11).
# pial arterioles = assay: basal and induced pial arteriolar dilation and hemodynamics; assay type: in vivo, newborn piglets
# Procedure: as §1
# Rabbits = settings: rabbit, in vivo, iv
# [4] = test system: ischemia-reperfusion in the heart; assay: infarct size after regional ischemia/reperfusion in the heart; assay type: in vivo, Rabbits; settings: PX-18 60 mg/kg ip; P<0.05
# Procedure: The protective effect of PX-18 during ischemia-reperfusion in the heart was assessed. Since opening of mitochondrial KATP channels are essential components of ischemic tolerance induced by preconditioning in heart, the role of these channels in PX-18-induced cardioprotection was also examined. Briefly, 180 mg of PX-18 was put into a small homogenizing tube containing 3 ml of ethylene glycol in a homogenizing tube and warming it to about 50° C. Several bursts of sonication (about 10 seconds) were applied in a nitrogen gas bath to minimize oxidation, followed by homogenization. This procedure was repeated 4-5 times until a uniform cloudy proportion that was easily injected through a needle was obtained. Procedures of this type generate PX-18 particles of a size in the micrometer range. Rabbits were treated with the sonicated preparation, of PX-18 (60 mg/kg ip). 30 minutes later the hearts were subjected to 30 minutes of regional ischemia followed by 3 hours of reperfusion. Mitochondrial KATP channel blocker 5-hydroxydecanoate (5-HD, 5 mg/kg iv) was given 10 min before ischemia/reperfusion. Infarct size was measured by computer morphometry of tetrazolium stained sections.
# [5] = dissolution velocity: amount suspended in water after 5 minutes (gravimetry); assay type: physicochemical
# Procedure: 1 ml of macrosuspension (PX powder, dispersed in water) and 1 ml of PX-18 nanosuspension (diameter 40 nm) was added to 9 ml of de-mineralised water and stirred with a magnetic stirrer for 5 minutes. Each 10 ml sample was then filtered to remove non-suspended PX-18, and the amount of suspended PX-18 was determined by gravimetry. While the concentration of PX-18 in both suspensions was 1% (w/w), about 91% of the nanoparticles had become suspended within 5 minutes compared to just 8.4% of the macrosuspension.
# To farther assess the importance of nanoparticle size on the dissolution velocity of PX-18, the dissolution velocity of PX-18 nanoparticles with a size of 40 nm was compared to that of PX-18 nanoparticles with a size of 200 nm. The analysis was performed as described above. After 5 minutes, about 91% of the 40 nm particles were suspended, whereas die larger 200 nm nanoparticles were suspended to about 41%.
# [6] = test system: hippocampus neurons after ischemia; assay: common carotid artery occlusion, alive hippocampal neurons; assay type: in vivo, Gerbils; settings: 1% nanoparticle formulation, 40-50 nm, subcutaneously 5 min, 24 hr and 48 hr after ischemia, day 4
# Procedure: Common carotid arteries of Gerbils (6 gerbils per group) were occluded for 5 minutes to induce ischemia. Thereafter, a nanoparticle formulation of PX-18 (1% formulation, particles size of 40-50 nanometers) was administered subcutaneously 5 min, 24 hr and 48 hr after ischemia. After surgery, the gerbils were returned to their cages where, upon awakening, they were able to resume their normal locomotor functions. They were sacrificed on day 4. The hippocampus was sectioned and the number of alive neurons was assessed. In the ischemic animals, sPLA2 unregulated within 24 hr after ischemia and most neurons were dead by 4 days. PX-18 reduced neuronal damage in a dose dependent manner, providing approximately 30% protection at a dose of 30 mg/kg and 45% protection at a dose of 60 mg/kg, […]
# solubility in solvents = assay type: physicochemical
# Text: PX-18, a specific inhibitor of sPLA2, is a fatty moiety feat is soluble in methylene chloride, chloroform and ethyl acetate. […] Its solubility in water is typically very low.
smiles,measurement,setting,value
CCCCCCCC/C=C\CCCCCCCC(=O)OCC(COC(=O)CCCCCCC/C=C\CCCCCCCC)(COC(=O)CCCCCCC/C=C\CCCCCCCC)NCCS(=O)(=O)O [PX-13],solubility in aqueous solutions,[1],about 5 μg/ml
same,PCS mean diameter,"[2]; 1% PX-13 in aqueous 2% Planta Care 2000, 20 cycles at 1500 bar",33 nm
same,"particle size (PCS, z-average)",[2]; one homogenization cycle at 1500 bar,400-900 nm
CCCCCCCC/C=C\CCCCCCCC(=O)OCCN(CCOC(=O)CCCCCCC/C=C\CCCCCCCC)CCS(=O)(=O)O [PX-18],effect on impaired hypercapnic vasodilation after global ischemia,[3]; intravenous treatment,restored
same,effect on ischemia-induced impaired vasodilation caused by N-methyl-D-aspartic acid,"[3]; iv administered, NMDA 10^−4M, FIG. 10",counteracts
same,effect on ischemia-induced impaired vasodilation caused by bradykinin,"[3]; iv administered, bradykinin 10^−8M, FIG. 9",counteracts
same,effect on impaired hypercapnic vasodilation after global ischemia,[3]; topical treatment,not topical
same,time to normalization of MABP and pial arteriole diameter,"pial arterioles; after iv bolus, 6 mg/kg",4 to 6 min
same,effect on basal and hypercapnia-induced (endothelium and COX dependent) pial arterial dilation,"pial arterioles; intravenous, FIG. 6",did not influence
same,pial arteriole dilation,"pial arterioles; iv bolus of nanoparticle formulation, 6 mg/kg, transient",32±1%
same,mean arterial blood pressure (MABP) after bolus,"pial arterioles; iv bolus of nanoparticle formulation, 6 mg/kg, transient decrease from 62±7 mmHg",40±5 mmHg
same,pial arteriole dilation (Mean±SEM),"pial arterioles; nanoparticle formulation, 10^−4M, topically onto the brain surface",16±5%
same,effect on PACAP induced (non-endothelium but COX-dependent) pial arteriolar dilation,"pial arterioles; topical, FIG. 7",impaired
same,survival,Rabbits,did not survive
same,solubility in aqueous solutions,[1],approximately 24 μg/ml
same,reduction of infarct size versus vehicle,[4],43%
same,amount suspended,"[5]; macrosuspension (powder, μm-sized particles), 1% (w/w), 1 ml in 9 ml de-mineralised water, stirred 5 minutes",8.4%
same,amount suspended,"[5]; nanoparticles with a size of 200 nm, after 5 minutes",about 41%
same,protection against neuronal damage,[6]; 30 mg/kg,approximately 30%
same,protection against neuronal damage,[6]; 60 mg/kg,~45%
same,solubility,solubility in solvents; in acetone and methanol,insoluble
same,solubility,solubility in solvents; in dimethylsulfoxide (DMSO),limited solubility
same,solubility,"solubility in solvents; in methylene chloride, chloroform and ethyl acetate",soluble
same,solubility,solubility in solvents; in water,very low
